Where a SMILES comes first, the peptide text is derived from it. Bridges are numbered along the chain shown (N, C = ends). [ ]: non-standard residue; d: D form. The star is where a group is joined. X4 = C[N+](C)(CCCC[C@H](NC(=O)CN1CCN(CC(=O)O)CCN(CC(=O)O)CCN(CC(=O)O)CC1)C(=O)*)CCCS(=O)(=O)[O-]; Acetyl(4-DOTA-piperazinyl) = O=C(O)CN1CCN(CC(=O)O)CCN(CC(=O)N2CCN(CC(=O)*)CC2)CCN(CC(=O)O)CC1; DOTA = O=C(O)CN1CCN(CC(=O)O)CCN(CC(=O)*)CCN(CC(=O)O)CC1; Pro(trans-4-F) = O=C(O)[C@@H]1C[C@@H](F)CN1; Tyr(3-Cl) = N[C@@H](Cc1ccc(O)c(Cl)c1)C(=O)O; Oic = O=C(O)[C@@H]1C[C@@H]2CCCC[C@@H]2N1; Pro(cis-4-F) = O=C(O)[C@@H]1C[C@H](F)CN1; Dopa = N[C@@H](Cc1ccc(O)c(O)c1)C(=O)O; Hyp = O=C(O)[C@@H]1C[C@@H](O)CN1; hPhe = N[C@@H](CCc1ccccc1)C(=O)O; Pentanoyl(4-Me) = CC(C)CCC(=O)*; Cit = NC(=O)NCCC[C@H](N)C(=O)O; Gly(cPr) = N[C@H](C(=O)O)C1CC1; Butoxycarbonyl = CCCCOC(=O)*; Phg = N[C@H](C(=O)O)c1ccccc1; Nle = CCCC[C@H](N)C(=O)O; Octanoyl = CCCCCCCC(=O)*; Orn = NCCC[C@H](N)C(=O)O; Api = NC1(C(=O)O)CCNCC1; Nva = CCC[C@H](N)C(=O)O; Deg = CCC(N)(CC)C(=O)O; Pentanoyl = CCCCC(=O)*
Legend:
[1] = target: T1, uPAR-expressing HEC-265 human endometrial adenocarcinoma cells (Homo sapiens, UniProt Q03405); experiment: Competitive FACS binding assay; details: pIC50 category of FACS binding
T1 construct: Cell surface uPAR-expressing HEC-265 human endometrial adenocarcinoma cells; host or cells: HEC-265
T1 sequence (Q03405 23-335): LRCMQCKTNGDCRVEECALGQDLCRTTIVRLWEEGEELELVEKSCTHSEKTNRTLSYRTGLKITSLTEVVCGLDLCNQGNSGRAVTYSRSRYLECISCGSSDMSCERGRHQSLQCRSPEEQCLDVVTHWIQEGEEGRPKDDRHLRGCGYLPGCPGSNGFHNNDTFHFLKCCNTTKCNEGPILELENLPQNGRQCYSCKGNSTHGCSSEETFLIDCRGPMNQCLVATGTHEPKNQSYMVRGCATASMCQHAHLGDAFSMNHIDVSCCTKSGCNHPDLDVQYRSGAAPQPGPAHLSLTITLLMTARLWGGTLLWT
Method in brief: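 HEC-265 cells incubated 1 h at 4 °C with 10 nM biotinylated uPAR peptide tracer plus increasing test compound, then stained with APC-streptavidin on ice. Median APC fluorescence by flow cytometry; 4PL fit gives pIC50.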

human uPAR (uPAR-Fc) = target: T2, human uPAR (uPAR-Fc) (Homo sapiens, UniProt Q03405); experiment: Surface plasmon resonance (SPR) assay, single cycle kinetics; type: binding; details: pKD category for uPAR SPR activity assay; uPAR-Fc on Protein A-Chip, 25°C; read-out: pKD CAT (converted)
T2 construct: comprising amino acids Leu23-Arg303 according to UniProt entry Q03405.1; purchased R&D Systems 10378-UK-100
T2 sequence (Q03405 23-303): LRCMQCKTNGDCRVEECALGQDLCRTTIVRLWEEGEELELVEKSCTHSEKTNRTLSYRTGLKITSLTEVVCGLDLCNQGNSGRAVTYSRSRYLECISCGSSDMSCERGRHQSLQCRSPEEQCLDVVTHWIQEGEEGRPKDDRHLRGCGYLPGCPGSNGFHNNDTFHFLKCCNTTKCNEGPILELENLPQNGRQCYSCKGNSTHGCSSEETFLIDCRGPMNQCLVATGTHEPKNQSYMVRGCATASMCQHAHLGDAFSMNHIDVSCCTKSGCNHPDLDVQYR
Method in brief: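 uPAR-Fc (Leu23-Arg303 extracellular domains, human IgG1 Fc) captured on Protein A chip to ~2000 RU; single-cycle kinetics at 25°C in HEPES running buffer pH 7.4 with 0.1% DMSO. KD from double-referenced sensorgrams fitted to 1:1 Langmuir model, reported as pKD.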

Row | SMILES | IC50 [1] [nM] | Kd (human uPAR (uPAR-Fc)) [nM]
1 | CCCCC(=O)N[C@H]1CSSC[C@@H](C(N)=O)NC(=O)[C@H](CCC)NC(=O)C(CC)(CC)NC(=O)[C@@H]2C[C@@H](O)CN2C(=O)[C@@H]2CCCN2C(=O)[C@H](Cc2ccccc2)NC(=O)[C@H](Cc2ccc(O)cc2)NC(=O)[C@H](CCC(N)=O)NC(=O)[C@H](CCCNC(=N)N)NC1=O [UPAR-179, Pent-[Cys-Arg-Gln-Tyr-Phe-Pro-Hyp-Deg-Nva-Cys]-NH2] (Pentanoyl-CRQYFP[Hyp][Deg][Nva]C-NH2; disulfide 1-10) | ≥ 126 | > 100
2 | CCCCOC(=O)N[C@H]1CSSC[C@@H](C(N)=O)NC(=O)[C@H](CCC)NC(=O)[C@H]([C@@H](C)CC)NC(=O)[C@@H]2C[C@@H](O)CN2C(=O)[C@@H]2C[C@H](F)CN2C(=O)[C@H](Cc2ccccc2)NC(=O)[C@H](Cc2ccc(O)cc2)NC(=O)[C@H](CCCCNC(=O)CN2CCN(C(=O)CN3CCN(CC(=O)O)CCN(CC(=O)O)CCN(CC(=O)O)CC3)CC2)NC(=O)[C@H]([C@@H](C)O)NC1=O [UPAR-181, Butoc-[Cys-Thr-Lys(DOTA-PPAc)-Tyr-Phe-4Cfp-Hyp-Ile-Nva-Cys]-NH2] (Butoxycarbonyl-CTK(Acetyl(4-DOTA-piperazinyl))YF[Pro(cis-4-F)][Hyp]I[Nva]C-NH2; disulfide 1-10) | ≤ 10 | < 1.58
3 | CCCCC(=O)N[C@H]1CSSC[C@@H](C(N)=O)NC(=O)[C@H](CCC)NC(=O)[C@H]([C@@H](C)CC)NC(=O)[C@@H]2C[C@@H](O)CN2C(=O)[C@@H]2CCCN2C(=O)[C@H](Cc2ccccc2)NC(=O)[C@H](Cc2ccc(O)cc2)NC(=O)[C@H](CCC(N)=O)NC(=O)C2(CCNCC2)NC1=O [UPAR-186, Pent-[Cys-Apc-Gln-Tyr-Phe-Pro-Hyp-Ile-Nva-Cys]-NH2] (Pentanoyl-C[Api]QYFP[Hyp]I[Nva]C-NH2; disulfide 1-10) | ≤ 10 | < 1.58
4 | CCCCC(=O)N[C@H]1CSSC[C@@H](C(N)=O)NC(=O)[C@H](CCC)NC(=O)[C@H]([C@@H](C)CC)NC(=O)[C@@H]2C[C@@H]3CCCC[C@@H]3N2C(=O)[C@@H]2CCCN2C(=O)[C@H](Cc2ccccc2)NC(=O)[C@H](Cc2ccc(O)cc2)NC(=O)[C@H](CCC(N)=O)NC(=O)[C@H](CCCNC(=N)N)NC1=O [UPAR-190, Pent-[Cys-Arg-Gln-Tyr-Phe-Pro-Oic-Ile-Nva-Cys]-NH2] (Pentanoyl-CRQYFP[Oic]I[Nva]C-NH2; disulfide 1-10) | 12.6 to 31.6 | < 1.58
5 | CCCCOC(=O)N[C@H]1CSSC[C@@H](C(N)=O)NC(=O)[C@H](CCC)NC(=O)[C@H]([C@@H](C)CC)NC(=O)[C@@H]2C[C@@H](O)CN2C(=O)[C@@H]2C[C@H](F)CN2C(=O)[C@H](Cc2ccccc2)NC(=O)[C@H](Cc2ccc(O)cc2)NC(=O)[C@H](CCCNC(=O)CN2CCN(CC(=O)O)CCN(CC(=O)O)CCN(CC(=O)O)CC2)NC(=O)[C@H]([C@@H](C)O)NC1=O [UPAR-192, Butoc-[Cys-Thr-Orn(DOTA)-Tyr-Phe-4Cfp-Hyp-Ile-Nva-Cys]-NH2] (Butoxycarbonyl-CT[Orn](DOTA)YF[Pro(cis-4-F)][Hyp]I[Nva]C-NH2; disulfide 1-10) | ≤ 10 | < 1.58
6 | CCCCOC(=O)N[C@H]1CSSC[C@@H](C(N)=O)NC(=O)[C@H](CCC)NC(=O)[C@H]([C@@H](C)CC)NC(=O)[C@@H]2C[C@@H](O)CN2C(=O)[C@@H]2C[C@H](F)CN2C(=O)[C@H](Cc2ccccc2)NC(=O)[C@H](Cc2ccc(O)c(O)c2)NC(=O)[C@H](CCCCNC(=O)[C@H](CCCC[N+](C)(C)CCCS(=O)(=O)[O-])NC(=O)CN2CCN(CC(=O)O)CCN(CC(=O)O)CCN(CC(=O)O)CC2)NC(=O)[C@H]([C@@H](C)O)NC1=O [UPAR-194, Butoc-[Cys-Thr-Lys(DOTA-Kzw)-Dopa-Phe-4Cfp-Hyp-Ile-Nva-Cys]-NH2] (Butoxycarbonyl-CTK(X4)[Dopa]F[Pro(cis-4-F)][Hyp]I[Nva]C-NH2; disulfide 1-10) | ≤ 10 | < 1.58
7 | CCCCC(=O)N[C@H]1CSSC[C@@H](C(N)=O)NC(=O)[C@H](CCC)NC(=O)[C@H]([C@@H](C)CC)NC(=O)[C@@H]2C[C@@H](O)CN2C(=O)[C@@H]2CCCN2C(=O)[C@H](Cc2ccccc2)NC(=O)[C@H](CC(C)C)NC(=O)[C@H](CCC(N)=O)NC(=O)[C@H](CCCNC(=N)N)NC1=O [UPAR-195, Pent-[Cys-Arg-Gln-Leu-Phe-Pro-Hyp-Ile-Nva-Cys]-NH2] (Pentanoyl-CRQLFP[Hyp]I[Nva]C-NH2; disulfide 1-10) | 12.6 to 31.6 | 1.58 to 10
8 | CCCCC(=O)N[C@H]1CSSC[C@@H](C(N)=O)NC(=O)[C@H](CCC)NC(=O)[C@H]([C@@H](C)CC)NC(=O)[C@@H]2C[C@@H](O)CN2C(=O)[C@@H]2CCCN2C(=O)[C@H](Cc2ccccc2)NC(=O)[C@H](c2ccccc2)NC(=O)[C@H](CCC(N)=O)NC(=O)[C@H](CCCNC(=N)N)NC1=O [UPAR-196, Pent-[Cys-Arg-Gln-Phg-Phe-Pro-Hyp-Ile-Nva-Cys]-NH2] (Pentanoyl-CRQ[Phg]FP[Hyp]I[Nva]C-NH2; disulfide 1-10) | ≥ 126 | > 100
9 | CCCCC(=O)N[C@H]1CSSC[C@@H](C(N)=O)NC(=O)[C@H](CCC)NC(=O)[C@H]([C@@H](C)CC)NC(=O)[C@@H]2C[C@@H](O)CN2C(=O)[C@@H]2CCCN2C(=O)[C@H](CC(C)C)NC(=O)[C@H](Cc2ccc(O)cc2)NC(=O)[C@H](CCC(N)=O)NC(=O)[C@H](CCCNC(=N)N)NC1=O [UPAR-197, Pent-[Cys-Arg-Gln-Tyr-Leu-Pro-Hyp-Ile-Nva-Cys]-NH2] (Pentanoyl-CRQYLP[Hyp]I[Nva]C-NH2; disulfide 1-10) | 12.6 to 31.6 | 1.58 to 10

The remaining lines, values ahead:

Row | IC50 [1] [nM] | Kd (human uPAR (uPAR-Fc)) [nM] | SMILES
10 | ≤ 10 | 1.58 to 10 | CC[C@H](C)[C@@H]1NC(=O)[C@@H](C)NC(=O)[C@@H]2C[C@@H](F)CN2C(=O)[C@H](Cc2ccccc2)NC(=O)[C@H](Cc2ccc(O)cc2)NC(=O)[C@H](CCC(N)=O)NC(=O)[C@H](CCCNC(N)=O)NC(=O)[C@@H](NC(=O)CCC(C)C)CSSC[C@@H](C(N)=O)NC(=O)[C@H](CC(C)C)NC1=O [UPAR-178, iHex-[Cys-Cit-Gln-Tyr-Phe-4Tfp-ala-Ile-Leu-Cys]-NH2] ({Pentanoyl(4-Me)}-C[Cit]QYF[Pro(trans-4-F)][dA]ILC-NH2; disulfide 1-10)
11 | ≥ 126 | > 100 | CC[C@H](C)[C@@H]1NC(=O)[C@@H](C)NC(=O)[C@@H]2CCCN2C(=O)[C@H](CCc2ccccc2)NC(=O)[C@H](Cc2ccc(O)cc2)NC(=O)[C@H](CCC(N)=O)NC(=O)[C@H](CCCNC(N)=O)NC(=O)[C@@H](NC(=O)CCC(C)C)CSSC[C@@H](C(N)=O)NC(=O)[C@H](CC(C)C)NC1=O [UPAR-180, iHex-[Cys-Cit-Gln-Tyr-Hfe-Pro-ala-Ile-Leu-Cys]-NH2] ({Pentanoyl(4-Me)}-C[Cit]QY[hPhe]P[dA]ILC-NH2; disulfide 1-10)
12 | ≤ 10 | 1.58 to 10 | CC[C@H](C)[C@@H]1NC(=O)[C@@H](C)NC(=O)[C@@H]2CCCN2C(=O)[C@H](Cc2ccccc2)NC(=O)[C@H](Cc2ccc(O)cc2)NC(=O)[C@H](CCC(N)=O)NC(=O)[C@H](CCCNC(N)=O)NC(=O)[C@@H](NC(=O)CCC(C)C)CSSC[C@@H](C(N)=O)NC(=O)[C@H](C(C)C)NC1=O [UPAR-184, iHex-[Cys-Cit-Gln-Tyr-Phe-Pro-ala-Ile-Val-Cys]-NH2] ({Pentanoyl(4-Me)}-C[Cit]QYFP[dA]IVC-NH2; disulfide 1-10)
13 | ≥ 126 | > 100 | CC(C)CCC(=O)N[C@H]1CSSC[C@@H](C(N)=O)NC(=O)[C@H](CC(C)C)NC(=O)[C@H](C2CC2)NC(=O)[C@@H](C)NC(=O)[C@@H]2CCCN2C(=O)[C@H](Cc2ccccc2)NC(=O)[C@H](Cc2ccc(O)cc2)NC(=O)[C@H](CCC(N)=O)NC(=O)[C@H](CCCNC(N)=O)NC1=O [UPAR-187, iHex-[Cys-Cit-Gln-Tyr-Phe-Pro-ala-Cpa-Leu-Cys]-NH2] ({Pentanoyl(4-Me)}-C[Cit]QYFP[dA][Gly(cPr)]LC-NH2; disulfide 1-10)
14 | ≤ 10 | < 1.58 | CC[C@H](C)[C@@H]1NC(=O)[C@@H](C)NC(=O)[C@@H]2CCCN2C(=O)[C@H](Cc2ccccc2)NC(=O)[C@H](Cc2ccc(O)c(Cl)c2)NC(=O)[C@H](CCC(N)=O)NC(=O)[C@H](CCCNC(N)=O)NC(=O)[C@@H](NC(=O)CCC(C)C)CSSC[C@@H](C(N)=O)NC(=O)[C@H](CC(C)C)NC1=O [UPAR-188, iHex-[Cys-Cit-Gln-Mcy-Phe-Pro-ala-Ile-Leu-Cys]-NH2] ({Pentanoyl(4-Me)}-C[Cit]Q[Tyr(3-Cl)]FP[dA]ILC-NH2; disulfide 1-10)
15 | ≤ 10 | < 1.58 | CCCCCCCC(=O)N[C@H]1CSSC[C@@H](C(N)=O)NC(=O)[C@H](CCC)NC(=O)[C@H]([C@@H](C)CC)NC(=O)[C@@H]2C[C@@H](O)CN2C(=O)[C@@H]2CCCN2C(=O)[C@H](Cc2ccccc2)NC(=O)[C@H](Cc2ccc(O)cc2)NC(=O)[C@H](CCC(N)=O)NC(=O)[C@H](CCCNC(=N)N)NC1=O [UPAR-193, Oct-[Cys-Arg-Gln-Tyr-Phe-Pro-Hyp-Ile-Nva-Cys]-NH2] (Octanoyl-CRQYFP[Hyp]I[Nva]C-NH2; disulfide 1-10)
16 | ≥ 126 | > 100 | CCCC[C@@H]1NC(=O)[C@H](CCCNC(=N)N)NC(=O)[C@@H](NC(=O)[C@H](CC(C)C)NC(=O)[C@H](CC(=O)O)NC(C)=O)CSSC[C@@H](C(N)=O)NC(=O)[C@H](CC(C)C)NC(=O)[C@H]([C@@H](C)CC)NC(=O)[C@H](C)NC(=O)[C@@H]2CCCN2C(=O)[C@H](Cc2ccccc2)NC(=O)[C@@H](Cc2ccc(O)cc2)NC1=O [UPAR-198, Ac-Asp-Leu-[Cys-Arg-Nle-tyr-Phe-Pro-Ala-Ile-Leu-Cys]-NH2] (Ac-DLCR[Nle][dY]FPAILC-NH2; disulfide 3-12)
